Test results taken from patent US9278996B2, “Dolastatin-10 derivative, method of producing the same and anticancer drug composition containing the same” (CELLTRION, INC., priority 2012, dated 2016).

Tested on: breast cancer (BT-474)
Test: Anticancer activity assay (WST-8 cell growth), BT-474
Type: cell-based
Details: Homo sapiens, BT-474, 96 h, read-out: IC50 (nM) BT-474
Description: The compounds of the present invention were assayed for inhibitory activity against 7 cancer cell lines as breast cancer (BT-474), human epithelial cancer (A-431), non-small cell lung cancer (NCI-H460), colon cancer (HT-29), colon cancer (SW-620), breast cancer (MDA-MB-231) and breast cancer (MCF-7).
Briefly, a suspension of each cancer cell line was serially diluted, and plated at a density of 2˜3×10^3 cells/well into 96-well microplates, followed by incubation at 37° C. for 4 day in a 5% CO2 atmosphere. Cell growth in a monolayer was measured using WST-8 reagemt (Dojindo, Japan).
IC50 values of the compounds against the cancer cell lines were calculated as compound concentrations at which the cells were grown by 50% OD of the control.

**Q.** For CC[C@H](C)[C@@H]([C@@H](CC(=O)N1C[C@H](OC)C[C@H]1[C@H](OC)[C@@H](C)C(=O)N[C@H](C)C(N)c1ccccc1)OC)N(C)C(=O)[C@@H](NC(=O)[C@H](C(C)C)N(C)C)C(C)C (mixture of isomers) [Compound I-36, (2S)—N-((3R,4S)-1-((2S)-2-((1R,2R)-3-(((2R)-1-amino-1-phenylpropan-2-yl)amino)-1-methoxy-2-methyl-3-oxopropyl)-4-methoxypyrrolidin-1-yl)-3-methoxy-5-methyl-1-oxoheptan-4-yl)-2-((S)-2-(dimethylamino)-3-methylbutaneamido)-N,3-dimethylbutanamide], which IC50 is on record?
**A.** The IC50 was 0.51 nM.

**Q.** CC[C@H](C)[C@@H]([C@@H](CC(=O)N1C[C@H](OC)C[C@H]1[C@H](OC)[C@@H](C)C(=O)N[C@@H](C)C(N)c1ccccc1)OC)N(C)C(=O)[C@@H](NC(=O)[C@H](C(C)C)N(C)C)C(C)C (mixture of isomers) [Compound I-37, (2S)—N-((3R,4S)-1-((2S,4R)-2-((1R,2R)-3-(((2S)-1-amino-1-phenylpropan-2-yl)amino)-1-methoxy-2-methyl-3-oxopropyl)-4-methoxypyrrolidin-1-yl)-3-methoxy-5-methyl-1-oxoheptan-4-yl)-2-((S)-2-(dimethylamino)-3-methylbutaneamido)-N,3-dimethylbutanamide] was tested. Which IC50 did it give?
**A.** Its IC50 is 2.82 nM.

**Q.** Which IC50 does the source give for CC[C@H](C)[C@@H]([C@@H](CC(=O)N1C[C@H](OC)C[C@H]1[C@H](OC)[C@@H](C)C(=O)N[C@H](C)C(=O)c1ccccc1)OC)N(C)C(=O)[C@@H](NC(=O)[C@@H](NC)C(C)C)C(C)C (stereo in doubt) [Compound I-6, (2 S)—N-((3R,4S)-3-methoxy-1-((2R,4R)-4-methoxy-2-((1R,2R)-1-methoxy-2-methyl-3-oxo-3-(((R)-1-oxo-1-phenylpropan-2-yl)amino)propyl)pyrrolidin-1-yl)-5-methyl-1-oxoheptan-4-yl)-N,3-dimethyl-2-((S)-3-methyl-2-(methylamino)butaneamido)butanamide] here?
**A.** The IC50 was 0.32 nM.

**Q.** With CC[C@H](C)[C@@H]([C@@H](CC(=O)N1C[C@H](OC)C[C@@H]1[C@H](OC)[C@@H](C)C(=O)NCCc1c(F)cccc1F)OC)N(C)C(=O)[C@@H](NC(=O)[C@@H](NC)C(C)C)C(C)C [Compound I-1, (S)—N-((3R,4S,5S)-1-((2R,4R)-2-((1R,2R)-3-((2,6-difluorophenethyl)amino)-1-methoxy-2-methyl-3-oxopropyl)-4-methoxypyrrolidin-1-yl)-3-methoxy-5-methyl-1-oxoheptan-4-yl)-N,3-dimethyl-2-((S)-3-methyl-2-(methylamino)butaneamido)butanamide] as the compound, how does the IC50 read?
**A.** The IC50 was 0.12 nM.

**Q.** How did the IC50 turn out when CC[C@H](C)[C@@H]([C@@H](CC(=O)N1C[C@H](OC)CC1[C@H](OC)[C@@H](C)C(=O)NCCc1cccc(F)c1)OC)N(C)C(=O)[C@@H](NC(=O)[C@@H](NC)C(C)C)C(C)C (stereo partly drawn) [Compound I-2] was run?
**A.** The IC50 was 0.7 nM.

**Q.** CC[C@H](C)[C@@H]([C@@H](CC(=O)N1C[C@H](OC)C[C@H]1[C@H](OC)[C@@H](C)C(=O)N[C@@H](C)C(=O)c1ccccc1)OC)N(C)C(=O)[C@@H](NC(=O)[C@@H](NC)C(C)C)C(C)C [Compound I-7, (2 S)—N-((3R,4S)-3-methoxy-1-((2S,4R)-4-methoxy-2-((1R,2R)-1-methoxy-2-methyl-3-oxo-3-(((S)-1-oxo-1-phenylpropan-2-yl)amino)propyl)pyrrolidin-1-yl)-5-methyl-1-oxoheptan-4-yl)-N,3-dimethyl-2-((S)-3-methyl-2-(methylamino)butaneamido)butanamide] was tested. Which IC50 did it give?
**A.** Its IC50 is 0.62 nM.

**Q.** For CC[C@H](C)[C@@H]([C@@H](CC(=O)N1C[C@@H](OC)C[C@@H]1[C@H](OC)[C@@H](C)C(=O)NCCc1ccccc1)OC)N(C)C(=O)[C@@H](NC(=O)[C@H](C(C)C)N(C)C)C(C)C [Compound I-10, (S)-2-((S)-2-(dimethylamino)-3-methylbutaneamido)-N-((3R,4S,5S)-3-methoxy-1-((2R,4S)-4-methoxy-2-((1R,2R)-1-methoxy-2-methyl-3-oxo-3-(phenethylamino)propyl)pyrrolidin-1-yl)-5-methyl-1-oxoheptan-4-yl)-N,3-dimethylbutanamide], which IC50 is on record?
**A.** Its IC50 is 0.24 nM.

**Q.** Which IC50 does the source give for CC[C@H](C)[C@@H]([C@@H](CC(=O)N1C[C@H](OC)C[C@@H]1[C@H](OC)[C@@H](C)C(=O)N[C@H](C)C(=O)c1ccc(F)cc1)OC)N(C)C(=O)[C@@H](NC(=O)[C@@H](NC)C(C)C)C(C)C [Compound I-11, (S)—N-((3R,4S,5 S)-1-((2R,4R)-2-((1R,2R)-3-(((R)-1-(4-fluorophenyl)-1-oxopropan-2-yl)amino)-1-methoxy-2-methyl-3-oxopropyl)-4-methoxypyrrolidin-1-yl)-3-methoxy-5-methyl-1-oxoheptan-4-yl)-N,3-dimethyl-2-((S)-3-methyl-2-(methylamino)butaneamido)butanamide] here?
**A.** The IC50 was 0.78 nM.

**Q.** CC[C@H](C)[C@@H]([C@@H](CC(=O)N1C[C@H](OC)C[C@@H]1[C@H](OC)[C@@H](C)C(=O)N[C@H](C)C(=O)c1cccc(OC)c1)OC)N(C)C(=O)[C@@H](NC(=O)[C@@H](NC)C(C)C)C(C)C [Compound I-14, (S)—N-((3R,4S,5S)-3-methoxy-1-((2R,4R)-4-methoxy-2-((1R,2R)-1-methoxy-3-(((R)-1-(3-methoxyphenyl)-1-oxopropan-2-yl)amino)-2-methyl-3-oxopropyl)pyrrolidin-1-yl)-5-methyl-1-oxoheptan-4-yl)-N,3-dimethyl-2-((S)-3-methyl-2-(methylamino)butaneamido)butanamide] was tested. Which IC50 did it give?
**A.** Its IC50 is 0.29 nM.

**Q.** CC[C@H](C)[C@@H]([C@@H](CC(=O)N1C[C@H](OC)C[C@@H]1[C@H](OC)[C@@H](C)C(=O)N[C@H](C)C(=O)c1ccc(OC)cc1)OC)N(C)C(=O)[C@@H](NC(=O)[C@@H](NC)C(C)C)C(C)C [Compound I-15, (S)—N-((3R,4S,5S)-3-methoxy-1-((2R,4R)-4-methoxy-2-((1R,2R)-1-methoxy-3-(((R)-1-(4-methoxyphenyl)-1-oxopropan-2-yl)amino)-2-methyl-3-oxopropyl)pyrrolidin-1-yl)-5-methyl-1-oxoheptan-4-yl)-N,3-dimethyl-2-((S)-3-methyl-2-(methylamino)butaneamido)butanamide] was tested. Which IC50 did it give?
**A.** Its IC50 is 0.51 nM.

**Q.** For CC[C@H](C)[C@@H]([C@@H](CC(=O)N1C[C@H](OC)C[C@@H]1[C@H](OC)[C@@H](C)C(=O)N[C@@H](C)C(=O)c1cc(F)cc(F)c1)OC)N(C)C(=O)[C@@H](NC(=O)[C@@H](NC)C(C)C)C(C)C [Compound I-16, (S)—N-((3R,4S,5S)-1-((2R,4R)-2-((1R,2R)-3-(((S)-1-(3,5-difluorophenyl)-1-oxopropan-2-yl)amino)-1-methoxy-2-methyl-3-oxopropyl)-4-methoxypyrrolidin-1-yl)-3-methoxy-5-methyl-1-oxoheptan-4-yl)-N,3-dimethyl-2-((S)-3-methyl-2-(methylamino)butaneamido)butanamide], which IC50 is on record?
**A.** Its IC50 is 0.65 nM.

**Q.** CC[C@H](C)[C@@H]([C@@H](CC(=O)N1C[C@H](OC)C[C@@H]1[C@H](OC)[C@@H](C)C(=O)N[C@@H](C)C(=O)c1c(F)cccc1F)OC)N(C)C(=O)[C@@H](NC(=O)[C@@H](NC)C(C)C)C(C)C [Compound I-17, (S)—N-((3R,4S,5S)-1-((2R,4R)-2-((1R,2R)-3-(((S)-1-(2,6-difluorophenyl)-1-oxopropan-2-yl)amino)-1-methoxy-2-methyl-3-oxopropyl)-4-methoxypyrrolidin-1-yl)-3-methoxy-5-methyl-1-oxoheptan-4-yl)-N,3-dimethyl-2-((S)-3-methyl-2-(methylamino)butaneamido)butanamide] was tested. Which IC50 did it give?
**A.** Its IC50 is 0.25 nM.

**Q.** For CC[C@H](C)[C@@H]([C@@H](CC(=O)N1C[C@H](OC)C[C@@H]1[C@H](OC)[C@@H](C)C(=O)N[C@H](C)C(=O)c1c(F)cccc1F)OC)N(C)C(=O)[C@@H](NC(=O)[C@@H](NC)C(C)C)C(C)C [Compound I-18, (S)—N-((3R,4S,5S)-1-((2R,4R)-2-((1R,2R)-3-(((R)-1-(2,6-difluorophenyl)-1-oxopropan-2-yl)amino)-1-methoxy-2-methyl-3-oxopropyl)-4-methoxypyrrolidin-1-yl)-3-methoxy-5-methyl-1-oxoheptan-4-yl)-N,3-dimethyl-2-((S)-3-methyl-2-(methylamino)butaneamido)butanamide], which IC50 is on record?
**A.** Its IC50 is 0.88 nM.

**Q.** With CC[C@H](C)[C@@H]([C@@H](CC(=O)N1C[C@H](OC)C[C@@H]1[C@H](OC)[C@@H](C)C(=O)N[C@H](C)/C(=N\O)c1cccc(OC)c1)OC)N(C)C(=O)[C@@H](NC(=O)[C@@H](NC)C(C)C)C(C)C [Compound I-19, (S)—N-((3R,4S,5 S)-1-((2R,4R)-2-((1R,2R)-3-(((R,Z)-1-(hydroxyimino)-1-(3-methoxyphenyl)propan-2-yl)amino)-1-methoxy-2-methyl-3-oxopropyl)-4-methoxypyrrolidin-1-yl)-3-methoxy-5-methyl-1-oxoheptan-4-yl)-N,3-dimethyl-2-((S)-3-methyl-2-(methylamino)butaneamido)butanamide] as the compound, how does the IC50 read?
**A.** Its IC50 is 0.09 nM.

**Q.** Which IC50 does the source give for CC[C@H](C)[C@@H]([C@@H](CC(=O)N1C[C@H](OC)C[C@@H]1[C@H](OC)[C@@H](C)C(=O)N[C@H](C)C(=NO)c1cccc(OC)c1)OC)N(C)C(=O)[C@@H](NC(=O)[C@H](C(C)C)N(C)C)C(C)C [Compound I-20, (S)-2-((S)-2-(dimethylamino)-3-methylbutaneamido)-N-((3R,4S,5S)-1-((2R,4R)-2-((1R,2R)-3-(((R)-1-(hydroxyimino)-1-(3-methoxyphenyl)propan-2-yl)amino)-1-methoxy-2-methyl-3-oxopropyl)-4-methoxypyrrolidin-1-yl)-3-methoxy-5-methyl-1-oxoheptan-4-yl)-N,3-dimethylbutanamide] here?
**A.** The IC50 was 0.47 nM.
